According to PubChem BioAssay AID505 (SGCOxCompounds, 2006):
“And” between values parts separate entries of the source, which are not always exact repeats. Equal values may be shown once.

biological target: Serine/threonine-protein kinase pim-2 (Homo sapiens) (UniProt Q9P1W9); experiment: PIM2 kinase ligand binding by thermal shift, biophysical, human, melting temperature shift (AID 505); conditions: Recombinant PIM2 thermal shift, Tm change; at 10 µM; buffer 10 mM HEPES; pH 7.5; NaCl 100 mM; with 50 µM L-Arg/L-Glu (1:1); stronger effect = higher value
Sequence (Q9P1W9 whole entry, looked up): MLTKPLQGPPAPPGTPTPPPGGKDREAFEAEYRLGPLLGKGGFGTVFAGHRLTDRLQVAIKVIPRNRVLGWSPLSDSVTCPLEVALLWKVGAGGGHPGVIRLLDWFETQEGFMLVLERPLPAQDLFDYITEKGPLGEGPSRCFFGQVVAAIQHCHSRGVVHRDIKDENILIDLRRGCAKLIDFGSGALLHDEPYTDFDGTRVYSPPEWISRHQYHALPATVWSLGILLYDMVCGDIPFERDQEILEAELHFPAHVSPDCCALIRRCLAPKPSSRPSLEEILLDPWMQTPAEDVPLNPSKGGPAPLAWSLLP

| Compound | Tm shift |
| --- | --- |
| Fc1ccc(CNc2ccc3ncc(-c4ccco4)n3n2)cc1 | 3.36 Celsius |
| CC(=O)c1cccc(-c2cnc3ccc(NCC4CC4)nn23)c1 | 4.29 Celsius |
| Clc1cccc(-c2cnc3ccc(NC4CCOCC4)nn23)c1 | 5.64 Celsius |
| O=c1c(O)c(-c2cc(O)c(O)c(O)c2)oc2cc(O)cc(O)c12 | 4.74 Celsius |
| O=C1NC(=O)c2c1c1c3ccccc3n3c1c1c2c2ccccc2n1[C@@H]1CCC3O1 | 11.1 Celsius |
| Clc1cccc(Nc2ccn3ncc(-c4ccsc4)c3n2)c1 | 3.45 Celsius |
| O=C1C(=O)C(c2cc(O)c(O)c(O)c2)Oc2cc(O)cc(O)c21 (configuration not stated) | 4.13 Celsius |
| NC1=N/C(=C2/CCNC(=O)c3[nH]c(Br)cc32)C(=O)N1 | 3.73 Celsius |
| O=C1NC(=O)c2c1c1c3ccccc3[nH]c1c1[nH]c3cc(Br)ccc3c21 | 6.31 Celsius |
| CN(C)CCCn1cc(C2=C(c3c[nH]c4ccccc34)C(=O)NC2=O)c2ccccc21 | 4.21 Celsius |
| Clc1cccc(-c2cnc3ccc(NCCc4ccccn4)nn23)c1 | 3.46 Celsius |

same assay, conditions: Recombinant PIM2 thermal shift, Tm change; at 10 µM; buffer 10 mM HEPES; pH 7.5; NaCl 150 mM; with 50 µM L-Arg/L-Glu (1:1); stronger effect = higher value

| Compound | Tm shift |
| --- | --- |
| Fc1cccc(-c2cnc3ccc(NC4CCOCC4)nn23)c1 | 3.17 Celsius |
| O=c1cc(-c2ccc(O)c(O)c2)oc2cc(O)cc(O)c12 | 4.14 Celsius |
| NCCNc1ncc(C(N)=O)c(Nc2cccc(C(F)(F)F)c2)n1 | 5.8 Celsius |
| N#C/C(=C1\Nc2ccccc2S1)c1ccnc(NCCc2cccnc2)n1 | 7.4 Celsius |
| CC1N=C2SC=CN2C(=O)C1CCN1CCC(=C(c2ccccc2)c2ccc(F)cc2)CC1 (configuration not stated) | 4.3 Celsius and 3.8 Celsius |
| O=C1NCc2c1c1c3ccccc3[nH]c1c1[nH]c3ccccc3c21 | 5.2 Celsius |
| O=C1Nc2ccccc2/C1=C\c1c(Cl)[nH]c2ccccc12 | 3.4 Celsius |
| Cc1c(O)cc(O)c2c1OC(c1ccc(O)c(O)c1)C(=O)C2=O (configuration not stated) | 4.1 Celsius |
| CCN1/C(=C/C(C)=O)Sc2ccc(OC)cc21 | 3.1 Celsius |
| CC(C)[C@@H](CO)Nc1ccc2ncc(-c3cccc(OC(F)(F)F)c3)n2n1 | 4.06 Celsius |
| CCC(CO)Nc1ccc2ncc(-c3cccc(C(C)=O)c3)n2n1 (configuration not stated) | 4.59 Celsius |
| O=c1c(O)c(-c2ccc(O)cc2)oc2cc(O)cc(O)c12 | 5.81 Celsius |
| CC(=O)c1cccc(-c2cnc3ccc(N[C@H](CO)C(C)C)nn23)c1 | 3.77 Celsius |
| COc1cc(/C=C/C(=O)CC(=O)/C=C/c2ccc(O)c(OC)c2)ccc1O | 4.3 Celsius |
| O=c1c(O)c(-c2ccc(O)c(O)c2)oc2cc(O)cc(O)c12 | 8.58 Celsius and 7.16 Celsius |
| CCC(CO)Nc1ccc2ncc(-c3ccc(C(=O)O)cc3)n2n1 (configuration not stated) | 4.94 Celsius |
| O=c1c(O)c(-c2ccc(O)c(O)c2)oc2cc(O)ccc12 | 6.11 Celsius |
| Cn1cc(C2=C(c3c4n(c5ccccc35)CCC(CN)C4)C(=O)NC2=O)c2ccccc21 (configuration not stated) | 3.6 Celsius |
| CCC(CO)Nc1ccc2ncc(-c3cccc(OC(F)(F)F)c3)n2n1 (configuration not stated) | 5.92 Celsius |
| O=c1cc(-c2ccc(O)cc2)oc2cc(O)cc(O)c12 | 3.8 Celsius |
| Oc1cc(O)c2c(c1)O[C@H](c1ccc(O)c(O)c1)[C@@H](O)C2 | 3.2 Celsius |
| O=c1oc2cc(O)ccc2c2oc3cc(O)ccc3c12 | 4.4 Celsius |
| O=C1C(=O)C(c2ccc(O)cc2)Oc2cc(O)cc(O)c21 (configuration not stated) | 5.62 Celsius |
| O=c1c(-c2ccc(O)cc2)coc2cc(O)cc(O)c12 | 3.3 Celsius |
| CCn1cnc2c(Nc3cccc(Cl)c3)nc(N[C@@H]3CCCC[C@@H]3N)nc21 | 5.45 Celsius |
| Cc1c2ccncc2c(C)c2c1[nH]c1ccccc12 | 4.8 Celsius |

| Compound | Tm shift |
| --- | --- |
| NC1=N/C(=C2/CCNC(=O)c3[nH]c(Br)cc32)C(=O)N1 | 3.7 Celsius |
| O=C1c2ccccc2-c2n[nH]c3cccc1c23 | 4.6 Celsius |
| CC(C)(C)c1nc2c3cc[nH]c(=O)c3c3cc(F)ccc3c2[nH]1 | 5.1 Celsius |
| N=C(N)SCCCn1cc(C2=C(c3c[nH]c4ccccc34)C(=O)NC2=O)c2ccccc21 | 5.64 Celsius |
| COc1cc(C2Oc3cc(O)cc(O)c3C(=O)C2=O)ccc1O (configuration not stated) | 7.24 Celsius |
| COC(=O)c1cnc2oc3ccc(O)cc3c2c1-c1ccccc1 | 6.25 Celsius |
| CCC(CO)Nc1ccc2ncc(-c3ccc(F)c(Cl)c3)n2n1 (configuration not stated) | 5.54 Celsius |
| CC(C)[C@@H](CO)Nc1ccc2ncc(-c3cccc(C(F)(F)F)c3)n2n1 | 4.39 Celsius |
| O=Nc1c(-c2c(O)[nH]c3ccc(S(O)(O)O)cc23)[nH]c2ccccc12 | 4.1 Celsius |
| CCC(CO)Nc1ccc2ncc(-c3ccc(O)cc3)n2n1 (configuration not stated) | 4.74 Celsius |
| O=C1Nc2ccc(I)cc2/C1=C/c1cc(Br)c(O)c(Br)c1 | 10.2 Celsius |
| FC(F)(F)Oc1cccc(-c2cnc3ccc(NC4CCOCC4)nn23)c1 | 5.78 Celsius |
| CN(C)CCCn1cc(C2=C(c3c[nH]c4ccccc34)C(=O)NC2=O)c2ccccc21 | 6.1 Celsius |
| CC(C)[C@@H](CO)Nc1ccc2ncc(-c3cccc(Cl)c3)n2n1 | 4.69 Celsius |
| Cc1cc(O)c2c(c1)C(=O)c1cc(O)cc(O)c1C2=O | 4.2 Celsius |
| COc1c(C=O)c(O)cc2c1C(=O)c1ccccc1C2=O | 3.3 Celsius |
| O=c1c(-c2ccc(O)cc2)coc2cc(O)ccc12 | 3.3 Celsius |
| O=C1C(=O)C(c2ccc(O)cc2O)Oc2cc(O)cc(O)c21 (configuration not stated) | 6.2 Celsius |
| O=C1C(=O)C(c2ccccc2)Oc2ccc(O)cc21 (configuration not stated) | 3.1 Celsius |
| CC(O)(O)C1(O)C[C@@H]2O[C@@]1(C)n1c3ccccc3c3c4c(c5c6ccccc6n2c5c31)C(=O)NC4 (some centres not stated) | 3.79 Celsius |
| O=C1NC(=O)C(c2c[nH]c3ccccc23)=C1c1c[nH]c2ccccc12 | 4.02 Celsius |
| O=c1[nH]c(O)c2c1c1c3ccccc3nc1n1cncc21 | 8 Celsius |
| NCCCn1cc(C2=C(c3c[nH]c4ccccc34)C(=O)NC2=O)c2ccccc21 | 5.63 Celsius |
| O=C1C(=O)C(c2cccc(O)c2)Oc2ccccc21 (configuration not stated) | 4.5 Celsius |
| Brc1c(Br)c(Br)c2n[nH]nc2c1Br | 4.25 Celsius |
